Tested on: progeria senescent fibroblasts (passage 17)
Assay: DNA comet assay
Format: cell-based, human
Conditions: CP-466722 0.1 μM, 4 weeks
Description: To determine the extent of recovery of the senescent cells to the DNA damage in accordance with the ATM-kinase inhibitor, the DNA comet assay (Trevigen, 4250-050-K) was carried out according to the protocol of the manufacturer. The principle of the DNA comet assay is based on gel electrophoresis. The damaged DNA moves farther away in the electrophoresis process than the undamaged DNA, resulting in the formation of a comet-tail shape. Afterwards, a slide used herein was stained with cyber green (SYBR Green), so that the tail length of the DNA fragment was measured by using fluorescence microscopy to confirm the extent of the DNA damage. The extent of the DNA damage may be measured as a tail moment value obtained by multiplying tail DNA % by the distance of migration of DNA fragmentation from the nucleus or the tail length. […]
To determine the extent of recovery of the senescent cells to the DNA damage in accordance with the ATM-kinase inhibitor, the DNA comet assay (Trevigen, 4250-050-K) was carried out according to the protocol of the manufacturer. […] Afterwards, a slide used herein was stained with cyber green (SYBR Green), so that the tail length of the DAN fragment was measured by using fluorescence microscopy to confirm the extent of the DNA damage. […]

COc1cc2ncnc(-n3nc(-c4ccccn4)nc3N)c2cc1OC [CP-466722, 2-(6,7-dimethoxyquinazolin-4-yl)-5-(pyridin-2-yl)-2H-1,2,4-triazol-3-amine]
DNA damage (tail moment) vs DMSO control: significantly decreased
